These results are taken from ChEMBL document CHEMBL1201862, “PubChem BioAssay data set” (2004).

Active and inactive are the calls of the source. A value given as a limit tells only on which side of the number the result lay.

Experiment [1] in a line: NIH-3T3 fibroblast cytotoxicity, dose response, cytotoxicity control, cell-based, fluorescence, Alamar Blue, secondary assay (AID 2327).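 Also: NIH-3T3 mouse fibroblasts cultured with fluconazole at 8 µg/mL.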 It counts as functional. In general terms: Resazurin is reduced to fluorescent resorufin, in cell work by metabolically active cells.
Experiment [2] deals with HEK293. Nature of the experiment: inhibition of NOD1-driven NF-kB reporter – cell-based, luminescence, uHTS, primary screen (AID 1578). It counts as functional. The following applies: Homo sapiens.
For experiment [3], the system named is HEK293. In words: cells. The following applies: Homo sapiens. It counts as functional, cell-based.
A further experiment concerns the target Beta-galactosidase (Escherichia coli, UniProt Q8VNN2). In words: PubChem AID 485352. Format: functional.
Experiment [4] has as its system Vero. Nature of the experiment: mammalian cell viability reduction – secondary assay, cytotoxicity control for West Nile virus antiviral project, dose response (AID 1650). The following applies: Chlorocebus sabaeus. It counts as functional.
A short description of experiment [5]: fluconazole-exposed Candida albicans growth modulators – fluorescence, retest, confirmation (AID 2467). Format: functional, cell-based.
Experiment [6] concerns HEK293. Nature of the experiment: cells. Format: functional, cell-based. The following applies: Homo sapiens. This is another data set of the same source.
For experiment [7], the target named is Nucleotide-binding oligomerization domain-containing protein 2 (Homo sapiens, UniProt Q9HC29). Nature of the experiment: inhibition of NOD2-driven NF-kB reporter – cell-based, luminescence, uHTS, HEK293 (AID 1566). It counts as functional.
Nucleotide-binding oligomerization domain-containing protein 2, sequence (Q9HC29 whole entry, the tested form may be a part): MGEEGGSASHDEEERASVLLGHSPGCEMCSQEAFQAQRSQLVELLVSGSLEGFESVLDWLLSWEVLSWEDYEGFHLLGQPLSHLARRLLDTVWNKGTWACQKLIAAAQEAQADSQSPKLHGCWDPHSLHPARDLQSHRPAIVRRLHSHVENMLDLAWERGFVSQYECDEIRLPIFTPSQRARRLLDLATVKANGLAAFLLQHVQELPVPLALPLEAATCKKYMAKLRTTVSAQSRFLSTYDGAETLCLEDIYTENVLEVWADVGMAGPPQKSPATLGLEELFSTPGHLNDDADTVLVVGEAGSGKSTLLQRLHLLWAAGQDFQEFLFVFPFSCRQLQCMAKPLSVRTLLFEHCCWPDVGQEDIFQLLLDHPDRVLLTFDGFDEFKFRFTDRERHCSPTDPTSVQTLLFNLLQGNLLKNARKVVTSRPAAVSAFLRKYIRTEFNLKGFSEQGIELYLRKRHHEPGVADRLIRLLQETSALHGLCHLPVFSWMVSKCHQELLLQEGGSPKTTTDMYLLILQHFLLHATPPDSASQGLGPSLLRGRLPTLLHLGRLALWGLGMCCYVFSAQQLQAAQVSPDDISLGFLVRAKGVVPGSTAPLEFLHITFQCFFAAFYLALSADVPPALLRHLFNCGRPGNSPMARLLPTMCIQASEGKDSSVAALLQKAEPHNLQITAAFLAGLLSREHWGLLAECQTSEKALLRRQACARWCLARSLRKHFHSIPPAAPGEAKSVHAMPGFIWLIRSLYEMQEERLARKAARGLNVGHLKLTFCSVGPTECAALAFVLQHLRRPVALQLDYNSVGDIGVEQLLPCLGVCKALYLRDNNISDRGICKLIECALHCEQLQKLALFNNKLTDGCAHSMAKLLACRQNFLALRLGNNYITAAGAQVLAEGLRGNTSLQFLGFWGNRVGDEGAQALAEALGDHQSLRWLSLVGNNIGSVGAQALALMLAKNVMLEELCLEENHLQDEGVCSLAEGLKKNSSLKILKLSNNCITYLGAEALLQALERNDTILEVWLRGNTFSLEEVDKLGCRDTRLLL
Experiment [8] has as its system HEK293. In words: NOD2 signaling inhibitors in MDP-stimulated cells, cell-based, uHTS, luminescence (AID 2001). The following applies: Homo sapiens. Format: functional.
Experiment [9] concerns HEK293. Nature of the experiment: cells. Format: functional, cell-based. The following applies: Homo sapiens. The source holds these as a separate data set.
Experiment [10] deals with T1, Type-1 angiotensin II receptor (Homo sapiens, UniProt P30556).
T1 sequence (P30556 whole entry): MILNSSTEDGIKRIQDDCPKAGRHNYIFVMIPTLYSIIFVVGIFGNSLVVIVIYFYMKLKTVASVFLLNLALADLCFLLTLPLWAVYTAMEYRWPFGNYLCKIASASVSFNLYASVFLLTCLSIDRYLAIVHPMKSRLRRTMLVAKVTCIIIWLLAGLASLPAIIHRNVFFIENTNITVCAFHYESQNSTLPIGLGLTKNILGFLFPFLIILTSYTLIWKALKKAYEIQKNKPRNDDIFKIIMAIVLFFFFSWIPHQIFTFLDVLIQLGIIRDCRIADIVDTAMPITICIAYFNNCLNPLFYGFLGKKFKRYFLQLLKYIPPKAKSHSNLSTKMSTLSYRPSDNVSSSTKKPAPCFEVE
In words: antagonism of angiotensin II type 1 receptor – cell-based, uHTS hits, selectivity assay for APJ receptor antagonist project, dose response (AID 463214).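 Also: antagonist potency against angiotensin II stimulated AT1 response.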 It counts as functional.

The nature of experiment [11]: HEK-293T viability loss after treatment – luminescence, T-cell screen hits, cytotoxicity control for TCR NF-kB inhibitor project, dose response (AID 489026).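 Also: cells exposed to compound about 14 hours before the viability readout.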 It counts as functional, cell-based.
The test system of another experiment is INS1. In words: INS-1E survival protection against cytokine death – cell-based, luminescence, retest, dose response (AID 449756).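 Also: cell death triggered by IL-1 beta plus TNF-alpha plus IFN-gamma mixture; protective hits raise ATP signal compared with cytokine alone wells.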 The following applies: Rattus norvegicus. It counts as functional.
The target of experiment [12] is T2, Short transient receptor potential channel 4 (Mus musculus, UniProt Q9QUQ5).
T2 sequence (Q9QUQ5 whole entry): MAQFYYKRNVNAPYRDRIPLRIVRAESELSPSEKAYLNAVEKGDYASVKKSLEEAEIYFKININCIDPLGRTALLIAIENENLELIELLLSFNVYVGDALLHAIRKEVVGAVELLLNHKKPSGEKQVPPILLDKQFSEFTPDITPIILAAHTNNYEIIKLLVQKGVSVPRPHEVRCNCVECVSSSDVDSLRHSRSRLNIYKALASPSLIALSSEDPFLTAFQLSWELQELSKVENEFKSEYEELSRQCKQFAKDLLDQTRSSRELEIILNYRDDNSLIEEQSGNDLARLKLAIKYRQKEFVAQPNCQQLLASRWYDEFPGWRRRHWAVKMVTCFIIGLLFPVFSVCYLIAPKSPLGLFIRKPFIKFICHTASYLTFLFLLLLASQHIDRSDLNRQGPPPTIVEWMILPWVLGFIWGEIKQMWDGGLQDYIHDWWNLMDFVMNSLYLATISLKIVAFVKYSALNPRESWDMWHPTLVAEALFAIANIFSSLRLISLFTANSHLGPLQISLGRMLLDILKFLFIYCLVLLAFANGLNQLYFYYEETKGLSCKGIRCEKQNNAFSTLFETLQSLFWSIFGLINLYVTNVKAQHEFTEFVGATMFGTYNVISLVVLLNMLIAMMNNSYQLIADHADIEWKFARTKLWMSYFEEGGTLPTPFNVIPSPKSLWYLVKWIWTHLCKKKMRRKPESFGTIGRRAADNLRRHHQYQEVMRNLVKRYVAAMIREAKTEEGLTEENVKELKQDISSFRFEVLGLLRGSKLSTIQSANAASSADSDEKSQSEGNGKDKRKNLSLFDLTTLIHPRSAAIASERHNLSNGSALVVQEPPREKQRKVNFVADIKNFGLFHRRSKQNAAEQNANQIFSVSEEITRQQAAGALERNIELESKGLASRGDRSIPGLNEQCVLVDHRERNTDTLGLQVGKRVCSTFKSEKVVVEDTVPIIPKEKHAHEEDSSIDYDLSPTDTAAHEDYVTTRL
Nature of the experiment: calcium entry via TRPC4 opening agents – cell-based, HEK293 TRPC4/mu-opioid, Fluo-4 calcium, dose response (AID 434937). Format: functional.

The next experiment concerns the target Cytochrome P450 2C19 (Homo sapiens, UniProt P33261). In words: Cytochrome panel assay with activity outcomes. Panel member name: p450-cyp2c19 Compounds with AC50 equal or less than 10 uM are considered active. Format: functional. The following applies: read-out: AC50.
The target of experiment [13] is T3, Replicative DNA helicase DnaB (Mycobacterium tuberculosis, UniProt P9WMR3).
T3 sequence (P9WMR3 whole entry): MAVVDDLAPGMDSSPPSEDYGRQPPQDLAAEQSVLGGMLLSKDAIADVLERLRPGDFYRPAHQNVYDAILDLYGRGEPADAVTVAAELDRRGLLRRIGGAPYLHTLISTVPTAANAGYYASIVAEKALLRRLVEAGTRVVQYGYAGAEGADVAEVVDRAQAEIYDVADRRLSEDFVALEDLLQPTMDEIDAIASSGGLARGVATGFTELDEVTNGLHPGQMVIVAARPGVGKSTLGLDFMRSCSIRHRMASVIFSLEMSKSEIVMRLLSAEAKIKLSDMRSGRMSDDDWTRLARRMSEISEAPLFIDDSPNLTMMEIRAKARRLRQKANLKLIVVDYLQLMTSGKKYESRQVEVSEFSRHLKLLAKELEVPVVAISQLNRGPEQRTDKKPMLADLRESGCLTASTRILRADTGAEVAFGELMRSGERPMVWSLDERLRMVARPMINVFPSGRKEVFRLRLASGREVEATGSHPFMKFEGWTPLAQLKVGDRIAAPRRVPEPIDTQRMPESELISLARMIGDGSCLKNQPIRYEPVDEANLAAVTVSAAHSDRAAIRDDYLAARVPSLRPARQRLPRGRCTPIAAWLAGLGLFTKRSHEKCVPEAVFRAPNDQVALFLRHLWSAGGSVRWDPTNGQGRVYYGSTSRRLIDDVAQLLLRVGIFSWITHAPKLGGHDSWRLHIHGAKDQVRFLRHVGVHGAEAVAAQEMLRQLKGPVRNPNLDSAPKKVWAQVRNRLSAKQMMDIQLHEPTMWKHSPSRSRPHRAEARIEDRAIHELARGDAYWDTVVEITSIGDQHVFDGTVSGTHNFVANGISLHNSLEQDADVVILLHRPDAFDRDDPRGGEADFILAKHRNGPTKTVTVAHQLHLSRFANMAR
In words: DnaB intein splicing inhibitors, dose response, biochemical, cell-free fluorescence (AID 449749). It counts as functional.

The test system of experiment [14] is Vero. In words: cells. Format: functional, cell-based. The following applies: Chlorocebus sabaeus.
A further experiment concerns the target T4, Protein RecA (Mycobacterium tuberculosis, UniProt P9WHJ3).
T4 sequence (P9WHJ3 whole entry): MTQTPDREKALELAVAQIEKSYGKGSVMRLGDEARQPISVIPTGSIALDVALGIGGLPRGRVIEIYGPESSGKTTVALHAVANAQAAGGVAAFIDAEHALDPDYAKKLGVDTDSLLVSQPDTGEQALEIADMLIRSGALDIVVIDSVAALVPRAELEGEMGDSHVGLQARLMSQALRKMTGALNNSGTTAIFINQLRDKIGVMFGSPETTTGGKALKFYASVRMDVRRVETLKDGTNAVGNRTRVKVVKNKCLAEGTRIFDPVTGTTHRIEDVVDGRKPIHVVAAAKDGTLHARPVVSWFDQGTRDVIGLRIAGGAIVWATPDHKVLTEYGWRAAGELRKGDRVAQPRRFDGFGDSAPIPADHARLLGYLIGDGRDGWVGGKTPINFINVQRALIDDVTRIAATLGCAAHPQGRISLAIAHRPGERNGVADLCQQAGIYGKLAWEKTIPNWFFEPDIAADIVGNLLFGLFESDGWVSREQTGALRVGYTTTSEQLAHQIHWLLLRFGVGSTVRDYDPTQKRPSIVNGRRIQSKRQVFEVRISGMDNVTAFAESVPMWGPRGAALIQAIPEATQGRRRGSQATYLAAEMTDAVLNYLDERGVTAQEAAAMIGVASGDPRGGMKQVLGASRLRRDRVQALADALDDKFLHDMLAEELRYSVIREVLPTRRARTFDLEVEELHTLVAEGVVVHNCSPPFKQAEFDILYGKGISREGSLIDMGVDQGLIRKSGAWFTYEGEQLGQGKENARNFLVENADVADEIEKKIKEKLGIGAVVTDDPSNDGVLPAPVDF
Nature of the experiment: Fluorescence Cell-Free Homogeneous Dose Retest to Identify Inhibitors of RecA-Intein Splicing Activity. [Related pubchem assays (depositor defined):AID2097, AID2223, AID489010, AID492950]. It counts as functional.

The test system of experiment [15] is Vero. Nature of the experiment: cells. Format: functional. The following applies: Chlorocebus sabaeus.
A further experiment addresses Cytochrome P450 2D6 (Homo sapiens, UniProt P10635).
For the next experiment, the target named is T5, Cytochrome P450 1A2 (Homo sapiens, UniProt P05177).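 Also: PubChem cytochrome P450 panel assay, CYP1A2 panel member.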
T5 sequence (P05177 whole entry): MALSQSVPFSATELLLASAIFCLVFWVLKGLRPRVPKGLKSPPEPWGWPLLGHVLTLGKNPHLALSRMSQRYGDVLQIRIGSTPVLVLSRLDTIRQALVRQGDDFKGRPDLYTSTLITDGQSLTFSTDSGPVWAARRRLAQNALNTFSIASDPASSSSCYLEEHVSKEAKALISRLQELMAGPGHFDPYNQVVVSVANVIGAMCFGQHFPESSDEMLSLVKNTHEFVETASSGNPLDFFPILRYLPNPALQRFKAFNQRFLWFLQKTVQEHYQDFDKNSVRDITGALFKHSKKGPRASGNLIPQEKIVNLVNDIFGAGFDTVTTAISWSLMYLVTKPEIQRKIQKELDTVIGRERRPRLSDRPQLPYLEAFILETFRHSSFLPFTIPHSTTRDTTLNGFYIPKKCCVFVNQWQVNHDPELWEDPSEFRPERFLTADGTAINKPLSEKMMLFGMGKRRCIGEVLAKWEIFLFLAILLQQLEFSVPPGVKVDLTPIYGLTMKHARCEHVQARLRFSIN

Cytochrome P450 2D6, sequence (P10635 whole entry): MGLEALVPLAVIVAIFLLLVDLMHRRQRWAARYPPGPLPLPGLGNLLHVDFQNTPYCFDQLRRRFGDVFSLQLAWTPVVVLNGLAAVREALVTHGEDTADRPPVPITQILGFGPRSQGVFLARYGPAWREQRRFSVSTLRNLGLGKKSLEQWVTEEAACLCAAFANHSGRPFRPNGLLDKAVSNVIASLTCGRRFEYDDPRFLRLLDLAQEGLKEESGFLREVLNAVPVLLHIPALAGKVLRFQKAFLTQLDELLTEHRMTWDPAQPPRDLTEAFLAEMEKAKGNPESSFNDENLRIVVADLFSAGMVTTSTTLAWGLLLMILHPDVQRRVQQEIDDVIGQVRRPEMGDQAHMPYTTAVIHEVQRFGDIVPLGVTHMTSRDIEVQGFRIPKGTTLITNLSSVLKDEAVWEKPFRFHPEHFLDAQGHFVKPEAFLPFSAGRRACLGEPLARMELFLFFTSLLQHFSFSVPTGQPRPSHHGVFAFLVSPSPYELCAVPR
Beta-galactosidase, sequence (Q8VNN2 whole entry): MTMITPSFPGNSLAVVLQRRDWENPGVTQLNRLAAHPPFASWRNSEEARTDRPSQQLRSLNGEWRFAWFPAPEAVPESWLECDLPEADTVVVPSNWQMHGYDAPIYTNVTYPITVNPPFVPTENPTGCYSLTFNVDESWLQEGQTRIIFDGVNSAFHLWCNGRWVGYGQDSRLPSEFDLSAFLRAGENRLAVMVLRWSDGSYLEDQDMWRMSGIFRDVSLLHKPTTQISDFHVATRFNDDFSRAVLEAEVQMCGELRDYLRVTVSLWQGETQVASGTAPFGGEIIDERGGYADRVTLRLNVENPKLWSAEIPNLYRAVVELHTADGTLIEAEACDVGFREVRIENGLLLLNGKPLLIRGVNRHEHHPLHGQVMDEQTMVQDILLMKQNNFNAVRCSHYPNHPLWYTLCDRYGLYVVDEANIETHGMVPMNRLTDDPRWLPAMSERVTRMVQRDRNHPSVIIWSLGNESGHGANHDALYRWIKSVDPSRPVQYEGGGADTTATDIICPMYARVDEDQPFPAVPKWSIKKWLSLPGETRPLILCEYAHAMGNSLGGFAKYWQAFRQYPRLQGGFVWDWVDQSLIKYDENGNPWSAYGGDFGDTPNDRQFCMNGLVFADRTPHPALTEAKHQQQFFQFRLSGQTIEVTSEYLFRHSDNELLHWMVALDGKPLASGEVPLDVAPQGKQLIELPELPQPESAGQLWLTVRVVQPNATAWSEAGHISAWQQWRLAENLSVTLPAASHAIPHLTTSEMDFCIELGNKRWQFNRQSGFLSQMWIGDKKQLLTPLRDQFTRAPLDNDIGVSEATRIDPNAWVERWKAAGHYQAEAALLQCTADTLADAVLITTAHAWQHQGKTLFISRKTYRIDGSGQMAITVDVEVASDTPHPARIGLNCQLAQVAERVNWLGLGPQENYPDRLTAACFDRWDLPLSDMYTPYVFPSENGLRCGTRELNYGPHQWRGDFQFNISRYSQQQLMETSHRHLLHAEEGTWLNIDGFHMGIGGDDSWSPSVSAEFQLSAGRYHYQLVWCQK
Cytochrome P450 2C19, sequence (P33261 whole entry): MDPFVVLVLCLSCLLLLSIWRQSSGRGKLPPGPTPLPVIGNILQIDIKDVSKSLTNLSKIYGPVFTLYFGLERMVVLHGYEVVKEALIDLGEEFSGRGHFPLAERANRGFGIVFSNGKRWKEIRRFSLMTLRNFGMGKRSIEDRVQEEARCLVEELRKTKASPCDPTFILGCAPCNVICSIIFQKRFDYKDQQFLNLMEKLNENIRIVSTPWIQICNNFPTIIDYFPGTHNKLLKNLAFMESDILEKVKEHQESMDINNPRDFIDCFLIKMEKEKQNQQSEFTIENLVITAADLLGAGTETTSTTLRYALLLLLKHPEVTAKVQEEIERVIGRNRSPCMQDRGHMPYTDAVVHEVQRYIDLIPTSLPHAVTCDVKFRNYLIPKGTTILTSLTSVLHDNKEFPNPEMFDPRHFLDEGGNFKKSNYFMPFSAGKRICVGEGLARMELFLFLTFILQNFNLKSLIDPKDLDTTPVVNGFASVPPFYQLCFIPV

One may read the EC50 as the concentration giving half of the maximal effect. The term IC50 denotes the concentration at which inhibition is half-maximal. The CC50 is the concentration at which the toxic effect on the cells reaches its halfway point. By AC50 is commonly meant the concentration at which the activity in the assay is half-maximal. For `Cc1ccc(C)c(N=Nc2ccc(O)c3ncccc23)c1`, the EC50 was 17 µM (active) in experiment [1]; 4.12 µM (active) in the experiment with HEK293 [2]; > 40 µM (inactive) at Beta-galactosidase; 1.57 µM (active) in [5]; > 20 µM (inactive) in experiment [7]. For the same molecule, the half-inhibitory concentration (IC50) was 1.89 µM (active) in the experiment on HEK293 [3]; > 20 µM (inactive) in the experiment on HEK293 [6]; 3 µM (active) in the experiment on HEK293 [8]; > 20 µM (inactive) in the experiment with HEK293 [9]; 9.84 µM (active) in experiment [10]; > 80 µM (inactive) in experiment [11]. Further, the CC50 with Vero [4] was 6.64 µM (active). Further, the AC50 with INS1 is 1.29 µM (active).

For the molecule `COc1ccc(C(=O)NC(=S)NNC(=O)CCc2ccccc2)cc1`, the EC50 was > 150 µM (inconclusive) in experiment [1], 2.16 µM (active) in [5], 5.96 µM (active) in experiment [12] and > 380 µM (inactive) on Protein RecA. Also, the concentration at half-maximal activity (AC50) is 14.1 µM (inconclusive) on Cytochrome P450 2C19, > 380 µM (inactive) in experiment [13], 15.8 µM (inconclusive) on Cytochrome P450 2D6 and 15.8 µM (inconclusive) at Cytochrome P450 1A2. In the experiment with Vero [14], the IC50 is 24.6 µM (active). The CC50 in the experiment on Vero [15] is 24.2 µM (active).
